Key:
[1] = tested on: xenograft tumor of BaF3 LMNA-NTRK1-G595R stably transfected cell line; test: Efficacy study on BaF3 LMNA-NTRK1-G595R stable cell strain subcutaneous xenograft model; type: in vivo, mouse (NOD-SCID); conditions: bid, p.o., 7 days
Experimental: Test substance: the compound represented by Formula (I), prepared according to the method in Embodiment 1.
A BaF3LMNA-NTRK1-G595R stably transfected cell line resuspended in a RPM11640 serum-free medium was inoculated subcutaneously on a right scapula of a mouse (nonobese diabetic-severe combined immunodeficiency disease (NOD-SCID)) at 1×10^6 cells/mouse (0.1 ml/mouse).
3.2 Grouping Administration
While the average tumor volume was about 500 mm^3, it was randomly divided into a vehicle group, a compound represented by Formula (I) (10/5/3/1 mg/kg, bid) group and a LOXO-195 group (30/10/3 mg/kg, bid).
3.3 Experimental Evaluation Index
1) Tumor growth inhibition rate TGI (%) • TGI (%)=(1−T/C)×100%
2) Tumor volume ratio of Treatment group/Control group TIC (%) • TIC (%)=TRTV/CRTV×100% • RTV=Vt/V0, herein Vt is the tumor volume on the t-th day after grouping, and V0 is the tumor volume on the day of grouping; TRTV: the average relative tumor volume in the administration group; and CRTV: the average relative tumor volume in the vehicle control group.

[2] = tested on: Ba/F3 SLC34A2/ROS1-G2032R cell line; test: In vitro cytological inhibitory activity (Celltiter-Glo assay); type: cell-based; conditions: Mus musculus, BaF3, 72 hours
Experimental: (§1) Test compound: the compound represented by Formula (I), prepared according to the method in Embodiment 1.
The meanings of cell lines used in the experiment are as follows: • Ba/F3 SLC34A2/ROS1-G2032R cell line: • A stably expressed cell line of Ba/F3 cells transfected with SLC34A2/ROS1-G2032R.
Experimental Method (Celltiter-Glo Assay)
(§2) 1. Cell Culture and Inoculation
(§3) All cells were suspension cells, and all culture mediums were RPM1-1640+10% FBS. The cells were tested in a logarithmic growth phase.
(§4) The cells in the logarithmic growth phase were collected and counted by a platelet counter. A trypan blue exclusion method was used to detect the cell activity, as to ensure that the cell activity was above 90%. It was adjusted to the appropriate concentration, and 90 μL of cell suspension was respectively added to a 96-well plate.
(§5) 2. Preparation of Test Compound
2.2 Preparation of Working Stock Solution of Test Compound […]
A CTG reagent was molten and a cell plate was balanced to a room temperature for 30 minutes. […] The light signal value was read by a multifunctional microplate reader.
1) Cell survival rate (%)=(test compound well reading−blank well reading)/(DMSO solvent control well reading−blank well reading)×100%; and […]

[3] = tested on: Ba/F3 LMNA-NTRK1-G595R cell line; test: In vitro cytological inhibitory activity (CelltiterGlo assay); type: cell-based; conditions: Mus musculus, BaF3, 72 hours
Source text: as §1
(§6) The meanings of cell lines used in the experiment are as follows: • Ba/F3 LMNA-NTRK1-G595R cell line: • A stably expressed cell line of Ba/F3 cells transfected with LMNA-NTRK1 G595R; and • Ba/F3 ETV6-NTRK3-G623R cell line: • A stably expressed cell line of Ba/F3 cells transfected with ETV6-NTRK3-G623R.
(§7) Experimental Method (CelltiterGlo Assay)
as §2, §3
as §4, with “activity,” for “activity, as”
as §5
(§8) “M” means “mol/L”, “mM” means “mmol/L”, and “μM” means “μmol/L”. […]
(§9) A CellTiter-Glo luminescent cell viability assay (CTG) reagent was molten and a cell plate was balanced to a room temperature for 30 minutes. […] The light signal value was read by a multifunctional microplate reader.
(§10) 1) Inhibition rate (%)=(DMSO solvent control well reading−test compound well reading)/(DMSO solvent control well reading−blank well reading)×[…]; and […]

[4] = tested on: Ba/F3 ETV6-NTRK3-G623R cell line; test: as above; type: cell-based; conditions: Mus musculus, BaF3, 72 hours
Source text: as §1, §6, §7, §2, §3
as §4, with “activity,” for “activity, as”
as §5, §8, §9, §10

[5] = Hygroscopicity test of crystal form II; type: physicochemical
Experimental: 2. Hygroscopicity Test of Crystal Form II
Test sample: the crystal form II of the compound represented by Formula (I).
Test method: it was determined according to the general rule 9103 (guidelines of drug hygroscopicity test) of the Chinese Pharmacopoeia (2015 Edition, Part IV): the test sample was placed under the condition of 25° C. and RH80% for 24 h (a sample bottle was placed under this condition for 24 h in advance), and results were shown in Table 2: […]

[6] = Stability test of crystal form II; type: physicochemical
Experimental: Test sample: the crystal form II of the compound represented by Formula (I)
Test method: a suitable amount of the test samples was respectively weighed, and the appearance, moisture, content, related substances, XRD, and DSC of the test samples were investigated after being placed under the following conditions. The placing conditions were as follows.
Under the conditions of 60° C.±2° C., or of 25° C. RH92.5%, it was placed for 10 days, opened/closed, and a sample was taken for testing on the 10th day (the opened package is a flat weighing bottle, and the closed package is a low-density polyethylene bag or low-density polyethylene bag+composite film bag.
Under the conditions of 40° C. RH75%, it was placed for one month, opened/closed, and a sample was taken for testing after one month (the opened package is the flat weighing bottle, and the closed package is the low-density polyethylene bag or low-density polyethylene bag+composite film bag).
Moisture: it was determined according to the first 2 coulometric titration of the general rule 0832 (moisture determination) of the Chinese Pharmacopoeia (2015 Edition, Part IV).
XRD: it was determined according to the general rule 0451 (X-ray diffraction) of the Chinese Pharmacopoeia (2015 Edition, Part IV).
DSC: it was determined at a heating rate of 3° C./min, from 100° C. to 200° C.
Related substances and content: it was determined according to the general rule 0512 (HPLC) of the Chinese Pharmacopoeia (2015 Edition, Part IV).

[7] = 25° C. RH 92.5% 10 days, Opened
[8] = 25° C. RH 92.5% 10 days, Polyethylene bag
[9] = 25° C. RH 92.5% 10 days, Polyethylene bag + composite film bag
[10] = 40° C. RH 75% 1M, Polyethylene bag
[11] = 40° C. RH 75% 1M, Polyethylene bag + composite film bag
[12] = 60° C. 10 days, Polyethylene bag
[13] = 60° C. 10 days, Polyethylene bag + composite film bag

## C[C@@H]1COc2ncc(F)cc2[C@H]2CCCN2c2ccc3ncn(c3n2)C(=O)N1 [Compound represented by Formula (I), (2^2R, 6R)-3^5-fluoro-6-methyl-1^3H-4-oxa-7-aza-1(5,3)-imidazo[4,5-b]pyridina-3(3,2)-pyridina-2(1,2)-pyrrolidina cyclooctaphan-8-one]
[1]; experiment 1, 3 mg/Kg
  T/C: 73.2%
  TGI: 26.8%
[1]; experiment 2, 1 mg/Kg
  T/C: 53.7%
  TGI: 46.3%
[1]; experiment 2, 5 mg/Kg
  T/C: 0%
  TGI: 100%
[1]; experiment 2, 10 mg/Kg
  T/C: 0%
  TGI: 100%
[2]
  IC50: 2.3 nM
[3]
  IC50: 0.6 nM
[4]
  IC50: 1 nM

## C[C@@H]1CCc2ncc(F)cc2[C@H]2CCCN2c2ccn3ncc(c3n2)C(=O)N1 [LOXO-195, reference compound]
[1]; experiment 1, 3 mg/Kg
  T/C: 93.6%
  TGI: 6.4%
[1]; experiment 1, 10 mg/Kg
  T/C: 63.1%
  TGI: 36.9%
[1]; experiment 2, 30 mg/Kg
  T/C: 0%
  TGI: 100%

## C[C@@H]1COc2ncc(F)cc2[C@H]2CCCN2c2ccc3ncn(c3n2)C(=O)N1 [Crystal form II, (2^2R,6R)-3^5-fluoro-6-methyl-1^3H-4-oxa-7-aza-1(5,3)-imidazo[4,5-b]pyridina-3(3,2)-pyridina-2(1,2)-p yrrolidinacyclooctaphan-8-one]
[5]; 25° C. RH80% placing for 1 day
  Moisture absorption weight gain: 0.002%
[5]; 25° C. and RH80% for 24 h
  hygroscopicity (in words): no or almost no hygroscopicity
[6]; 0 day
  Appearance: Off-white
  Content: 100.4%
  DSC: 162.32 °C
  Moisture: 0.088%
  Total related substance: 0.09%
[6]; [7]
  Appearance: Off-white
  Content: 99.6%
  DSC: 162.23 °C
  Moisture: 0.13%
  Total related substance: 0.11%
  XRD: Same
[6]; [8]
  Appearance: Off-white
  Content: 99.5%
  DSC: 162.23 °C
  Moisture: 0.11%
  Total related substance: 0.10%
  XRD: Same
[6]; [9]
  Appearance: Off-white
  Content: 99.3%
  DSC: 162.27 °C
  Moisture: 0.11%
  Total related substance: 0.11%
  XRD: Same
[6]; 40° C. RH 75% 1M, Opened
  Appearance: Off-white
  Content: 100.8%
  DSC: 162.29 °C
  Moisture: 0.026%
  Total related substance: 0.10%
  XRD: Same
[6]; [10]
  Appearance: Off-white
  Content: 101.0%
  DSC: 162.18 °C
  Moisture: 0.033%
  Total related substance: 0.10%
  XRD: Same
[6]; [11]
  Appearance: Off-white
  Content: 101.0%
  DSC: 162.35 °C
  Moisture: 0.036%
  Total related substance: 0.10%
  XRD: Same
[6]; 60° C. 10 days, Opened
  Appearance: Off-white
  Content: 99.8%
  DSC: 162.24 °C
  Moisture: 0.18%
  Total related substance: 0.11%
  XRD: Same
[6]; [12]
  Appearance: Off-white
  Content: 100.0%
  DSC: 162.26 °C
  Moisture: 0.15%
  Total related substance: 0.11%
  XRD: Same
[6]; [13]
  Appearance: Off-white
  Content: 99.7%
  DSC: 162.23 °C
  Moisture: 0.13%
  Total related substance: 0.10%
  XRD: Same
[6]; 60° C. 10 days, 25° C. RH92.5% 10 days, 40° C. RH75% 1 month, opened/closed package
  stability of the crystal form (in words): the stability of the crystal form is good
